Data from patent publication US5721106A, “In Vitro method for screening β-amyloid deposition” (Regents of the University of Minnesota, priority 1994, dated 1998).
Entries after “also recorded” stand apart in the source; their conditions may differ. Ends that are not written are not given here. Peptide text beside a SMILES is read from it. * marks the point of attachment. PEG = not defined here; 125I = [125I]*

Experiments:
AD plaques [1] = assay: Deposition of ^125 I-labelled β-amyloid peptides onto plaques in AD brain tissue (homogenate binding, autoradiography); design: species or system human; details: for deposition activity of fragment (active / not active): labelled fragment combined with AD amyloid plaque or silk, relative to βA(1-40)-OH; for plaque competence as a function of pH: growth of tissue plaques by deposition of labelled peptides from solution; for activity relative to the full length peptide βA(1-40)-OH: plaque deposition on AD brain sections, two hours, densitometry of autoradiograms
Description: Fragments labelled in accordance with the method described herein can be combined with amyloid plaque derived from Alzheimer's disease tissue or other amyloid substance such as silk, and tested for activity, for example, their ability to deposit on these materials.
(§1) Brain tissue was obtained form normal and Alzheimer's disease patients at 0.5 to 14 hours postmortem, frozen on dry ice after collection, and stored at -20° C. until use. For filter binding studies, tissue homogenates were prepared after the method of H. P. Too and M. R. Hanley, Biochem. J. 252:545 (1988), the disclosure of which is incorporated by reference herein. Tissue was homogenized (Polytron, setting 7-8, 5-10 sec) in 5-10 volumes of 50 mM Tricine (pH 7.5) containing 10% sucrose and protease inhibitors (0.01% bacitracin, 0.002% soybean trypsin inhibitor, 0.0002% chicken egg trypsin inhibitor, 1 mM benzamidine hydrochloride) and pelleted at 10,000 g for 20 minutes. The homogenate was then resuspended and washed several times in Tricine buffer containing 120 mM NaCl, 10 mM EDTA, 300 mM KCl and centrifuged at 40,000 g for 20 minutes and stored at -20° C. for less than two months. Membranes (equivalent to about 30 mg tissue) were resuspended in 0.5 ml 50 mM TrisHCl (pH 7.5) containing 1 mg/ml bovine serum albumin (BSA), 10 mM MnCl2, 0.004% bacitracin, 0.002% chymostatin, 0.004% leupeptin, 0.1% dimethylsulfoxide for 30 minutes prior to addition of the radioligand (10^-11 to 10^-9 M) and various concentrations of unlabelled peptides in the same buffer.
(§2) After incubating for two hours at room temperature, the homogenates (final volume 0.575 ml) were filtered through glass fiber filters (Whatman GF/D), presoaked for at least two hours in 1 mg/ml BSA and rinsed with 25 mM Tricine (pH 7.5). After washing twice with 25 mM TrisHCl (pH 7.5) at room temperature, the filters were counted in a gamma counter.
For tissue autoradiography, unfixed tissue was serially sectioned at 5-15 μm and thaw-mounted onto gelatin-coated slices. Slide-mounted sections were stored at -20° C. in closed boxes over desiccant for less than three months before use. Sections were preincubated for 30 minutes and incubated with the radioligand for two hours under the same conditions according to the aforedescribed homogenate binding study. Alternatively, 50 mM TrisHCl rather than Tricine may be used as the buffer. For estimating nonspecific binding, paired serial sections were incubated with the radioligand in the presence of a 10^4 to 10^5 fold excess of the unlabelled peptide. Following incubation with the radioligand, the slides were washed with 50 mM TrisHCl pH 7.5 (four times, two minutes each at 4° C.), then dried at 4° C. and stored in closed boxes over desiccant at room temperature overnight. The fully dried slides were then placed in apposition to tritium-sensitive film alongside iodinated standards. After one week's exposure at -20° C., the film was developed, fixed and washed. […] This approach generated film autoradiograms for quantitative densitometry,a high resolution emulsion autoradiograms for detailed histology, and a counterstained section for identification of cell types from each tissue section.
Briefly peptides were purchased or synthesized by fluorenemethoxycarbonyl chemistry on polystyrene resins, using acid-labile blocking groups for sidechain protection, cleaved with trifluoroacetic acid, and purified by RP-HPLC. […] Autoradiograms were quantitated by densitometry. […] To study the peptide fragments in water we developed a novel approach, measuring NMR data at 750 MHz using a prototype 10 mm ^1 H pulsed field gradient probe. Modified two-dimensional homonuclear TOCSY and NOESY experiments were measured at several pH values and structural information was derived using standard methods.

tissue plaques = assay: Effect of metal ions, chelating agent and detergents on deposition of labelled peptide on tissue plaques; type: binding, human
Source text: A deposition-enhancing agent may be added prior to the addition of the deposition-affecting agent to be tested.

[2] = target: T1, labelled β-amyloid peptide (Homo sapiens, UniProt P05067); assay: In vitro aggregation of labelled β-amyloid peptide in the absence of plaques (centrifugation, supernatant counting); type: biochemical; details: about 10^-9 M labelled peptide, 50 mM Tricine pH 7.5; SDS at 0.01%
T1 construct: made in house; host or cells: chemical synthesis (solid-phase Fmoc) or purchased unlabelled peptide (Bachem); radioiodinated in house
Description: A solution of about 10^-9 M labelled β-amyloid peptide in 50 mM Tricine buffer at pH 7.5 was prepared from stock solution of the peptide as described hereinabove in Example 1. The solution was aliquotted into several reaction vessels (polypropylene microcentrifuge tubes) and allowed to stand at room temperature with occasional vortex mixing. At various times, the tubes were centrifuged at 12000 g for 4 minutes, and the fraction of initial (t=0) cpm of labelled peptide remaining in the supernatant fraction determined by removing a small aliquot for counting. The rate of disappearance was dependent on a variety of other conditions which were evaluated using this assay. Thus, the rate of the disappearance depends on peptide concentration (faster at higher peptide concentrations), and on ionic strength (faster at higher salt concentrations). The rate of disappearance was further dependent on the presence of certain detergents such as sodium dodecylsulfate (SDS) (faster in 0.01% SDS; see, FIG. 4), and on the presence of certain organic solvents (slower in the presence of acetonitrile).

ceilan katia yarn (silk) = assay: Effect of detergents and zinc on deposition of tracer onto silk; type: binding, Bombyx silkworm; details: for effect of detergent on rate of deposition (binding) onto silk: detergent concentration 0 to 1%
[3] = system: Alzheimer's disease plaques; assay: Competitive inhibition of ^125 I-β-amyloid peptide^1-40 deposition in homogenates of Alzheimer's disease temporal cortex; type: binding, human; details: increasing concentrations of unlabelled peptide, AD temporal cortex homogenates (and sections)
Description: as §1, §2

AD plaques [4] = assay: Deposition of ^125 I-labelled β-amyloid peptides onto plaques in AD brain tissue (homogenate binding, autoradiography); design: species or system human; details: for plaque deposition (plaque competence) at pH 3.9: quantitative densitometry of autoradiograms; for plaque deposition at pH 5.8: 100% = deposition of ^125 I-βA(1-40)-OH at pH 7.4
[5] = target: amyloid plaques in Alzheimer's disease brain tissue (homogenates and thin sections); assay: deposition of 125I-labelled peptide onto AD brain sections, autoradiography with densitometry

T1 sequence (P05067 672-711): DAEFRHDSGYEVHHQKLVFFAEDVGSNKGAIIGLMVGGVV

## CC[C@H](C)[C@H](NC(=O)[C@H](C)NC(=O)CNC(=O)[C@H](CCCCN)NC(=O)[C@H](CC(=O)O)NC(=O)[C@H](CO)NC(=O)CN)C(=O)N[C@H](C(=O)NCC(=O)N[C@@H](CC(C)C)C(=O)N[C@@H](CCSC)C(=O)O)[C@@H](C)CC [D27-βA(25-35)-OH] (H-GSDKGAIIGLM-OH)
AD plaques [1]
  deposition activity of fragment (active / not active): not active (exhibit less than about 1% of the deposition level of βA(1-40)OH)

## O=C(O)CN(CCN(CC(=O)O)CC(=O)O)CC(=O)O [EDTA, ethylene diamine tetraacetic acid]
Tissue plaques; 0.1 mM
  inhibition of the rate of deposition of labelled peptide: five-fold

## CCCCCCCCCCCCOS(=O)(=O)[O-].[Na+] [SDS, sodium dodecyl sulfate]
Tissue plaques
  effect of detergent on deposition of labelled peptide on tissue plaques: enhance deposition
[2]
  rate of disappearance of tracer from the supernatant (aggregation): faster
Ceilan katia yarn (silk)
  effect of detergent on rate of deposition (binding) onto silk: increase binding rate

## CCCCCCCCCCCC[N+](C)(C)CCCS(=O)(=O)[O-] [Zwittergent 312]
Tissue plaques
  effect of detergent on deposition of labelled peptide on tissue plaques: no effect

## CC#N [acetonitrile]
[2]
  rate of disappearance of tracer from the supernatant (aggregation): slower

## [Cl-].[Cl-].[Zn+2] [zinc chloride]
Tissue plaques; 0.1 mM
  enhancement of the rate of deposition of labelled peptide: twenty-fold
Tissue plaques; tracer ^125 I-βA(26-42)-NH2
  effect on deposition of ^125 I-βA(26-42)-NH2 onto AD plaques: unaffected
Ceilan katia yarn (silk); tracer ^125 I-βA(1-40)-OH
  factor of acceleration of deposition of ^125 I-βA(1-40)-OH onto silk thread: about 5
Ceilan katia yarn (silk); tracer ^125 I-βA(26-42)-NH2
  effect on deposition of ^125 I-βA(26-42)-NH2 onto silk: unaffected

## CC(C)C[C@H](NC(=O)[C@H](CCCCN)NC(=O)[C@H](CCC(N)=O)NC(=O)[C@H](Cc1c[nH]cn1)NC(=O)[C@H](Cc1c[nH]cn1)NC(=O)[C@@H](NC(=O)[C@@H](N)CCC(=O)O)C(C)C)C(=O)N[C@H](C(=O)N[C@@H](Cc1ccccc1)C(=O)N[C@@H](Cc1ccccc1)C(=O)N[C@@H](C)C(=O)N[C@@H](CCC(=O)O)C(=O)N[C@@H](CC(=O)O)C(=O)N[C@H](C(=O)NCC(=O)O)C(C)C)C(C)C [βA(11-25)-OH]
AD plaques [1]
  deposition activity of fragment (active / not active): not active (exhibit less than about 1% of the deposition level of βA(1-40)OH)

## CC[C@H](C)[C@H](NC(=O)[C@H](C)NC(=O)CNC(=O)[C@H](CCCCN)NC(=O)[C@H](CC(N)=O)NC(=O)[C@H](CO)NC(=O)CN)C(=O)N[C@H](C(=O)NCC(=O)N[C@@H](CC(C)C)C(=O)N[C@@H](CCSC)C(N)=O)[C@@H](C)CC [βA(25-35)-NH2] (H-GSNKGAIIGLM-NH2)
[3]; listed as β-amyloid peptide^25-35 -NH2
  inhibition of ^125 I-β-amyloid peptide^1-40 deposition onto plaques: competed with the 40-mer radioligand when the former was present at much higher concentrations; also recorded: substantially less potent
AD plaques [1]
  deposition activity of fragment (active / not active): not active (exhibit less than about 1% of the deposition level of βA(1-40)OH)

## (des-A2)-βA(1-40)-OH: 39-mer lacking the alanine at position 2
AD plaques [1]
  deposition activity of fragment (active / not active): active

## PEG-βA(10-35)-NH2: polyethylene glycol conjugate of βA(10-35)-NH2 ({PEG}-YEVHHQKLVFFAEDVGSNKGAIIGLM-NH2; reading uncertain)
AD plaques [1]
  deposition activity of fragment (active / not active): not active (exhibit less than about 1% of the deposition level of βA(1-40)OH)

## Triton X-100
Tissue plaques
  effect of detergent on deposition of labelled peptide on tissue plaques: no effect
Ceilan katia yarn (silk)
  effect of detergent on rate of deposition (binding) onto silk: no effect

## ^125 I-βA(1-28)-OH: ^125 I-labelled βA(1-28)-OH
AD plaques [4]
  plaque deposition (plaque competence) at pH 3.9: plaque-incompetent
  plaque deposition at pH 5.8: < 1%

## ^125 I-βA(1-40)-OH: ^125 I-radioiodinated (monoiodinated, reduced) human β-amyloid peptide 1-40 tracer
AD plaques [4]
  plaque deposition (plaque competence) at pH 3.9: plaque-incompetent
  plaque deposition at pH 5.8: 83%
AD plaques [1]; 100 pM
  pH optimum of deposition onto plaques in AD tissue: around neutrality
AD plaques [1]; tissue without preformed plaques
  deposition in tissue without preformed plaques: no deposition was detected

## ^125 I-βA(10-35)-NH2: ^125 I-labelled βA(10-35)-NH2, labelled at Tyr10 (Y(125I)EVHHQKLVFFAEDVGSNKGAIIGLM-NH2)
AD plaques [4]
  plaque deposition (plaque competence) at pH 3.9: plaque-incompetent
  plaque deposition at pH 5.8: 30%

## rat βA(1-40)-OH: rat and mouse analogue (G^5, F^10, R^14) of β-amyloid peptide, 1-40 (DAEFGHDSGFEVHRQKLVFFAEDVGSNKGAIIGLMVGGVV-OH)
[3]; listed as rat β-amyloid peptide^1-40
  inhibition of ^125 I-β-amyloid peptide^1-40 deposition onto plaques: essentially inactive
[3]; listed as unlabelled rat β-amyloid peptide^1-40
  inhibition of ^125 I-β-amyloid peptide^1-40 deposition onto plaques: did not inhibit
AD plaques [1]
  deposition activity of fragment (active / not active): not active (exhibit less than about 1% of the deposition level of βA(1-40)OH)

## βA(1-28)-OH (peptide)
[5]
  activity relative to βA(1-40)-OH: < 1%

## βA(1-28)-OH: 28 residue fragment corresponding to the amino terminal region
AD plaques [1]
  plaque competence as a function of pH: inactive at all pH values tested
  deposition activity of fragment (active / not active): not active (exhibit less than about 1% of the deposition level of βA(1-40)OH)
  activity relative to the full length peptide βA(1-40)-OH: less than 1%

## βA(1-35)-NH2: carboxyamidated β-amyloid fragment, residues 1-35
AD plaques [1]
  deposition activity of fragment (active / not active): active

## βA(1-40)-PEG: β-amyloid peptide 1-40 conjugated to polyethylene glycol at the C-terminus
AD plaques [1]
  deposition activity of fragment (active / not active): active

## βA(10-35)-NH2: 26 residue carboxyamidated fragment from the central region of the βA sequence (YEVHHQKLVFFAEDVGSNKGAIIGLM-NH2; also: 125I at Tyr10 as tracer (name unlabelled))
AD plaques [1]
  plaque competence as a function of pH: plaque-competent within the pH range of 5 to 9
  deposition activity of fragment (active / not active): active
  activity relative to the full length peptide βA(1-40)-OH: about 35%
AD plaques [1]; physiological (subnanomolar) peptide concentration
  activity as fraction of the activity of βA(1-40)-OH: about 1/3

## βA(10-35)-OH: β-amyloid fragment residues 10-35, free carboxyl terminus (YEVHHQKLVFFAEDVGSNKGAIIGLM-OH)
AD plaques [1]
  deposition activity of fragment (active / not active): active

B1: βA(10-35)-NH2 (peptide)
peptide: YEVHHQKLVFFAEDVGSNKGAIIGLM-NH2
modifications: not fully specified (residue 1)
[5]
  activity relative to the full length peptide: 35%
